Data from US12187723B2 (BRISTOL-MYERS SQUIBB COMPANY, priority 2019, dated 2025).

How the values were obtained:
human TLR7 = molecular target: T1, human TLR7 (Homo sapiens, UniProt Q9NYK1); experiment: TLR7 inhibition reporter assay (HEK-Blue SEAP); format: cell-based; conditions: HEK-Blue cells overexpressing human TLR7, gardiquimod 7.5 μM, 22 hour incubation
T1 construct: host or cells: HEK-Blue cells
T1 sequence (Q9NYK1 27-1049): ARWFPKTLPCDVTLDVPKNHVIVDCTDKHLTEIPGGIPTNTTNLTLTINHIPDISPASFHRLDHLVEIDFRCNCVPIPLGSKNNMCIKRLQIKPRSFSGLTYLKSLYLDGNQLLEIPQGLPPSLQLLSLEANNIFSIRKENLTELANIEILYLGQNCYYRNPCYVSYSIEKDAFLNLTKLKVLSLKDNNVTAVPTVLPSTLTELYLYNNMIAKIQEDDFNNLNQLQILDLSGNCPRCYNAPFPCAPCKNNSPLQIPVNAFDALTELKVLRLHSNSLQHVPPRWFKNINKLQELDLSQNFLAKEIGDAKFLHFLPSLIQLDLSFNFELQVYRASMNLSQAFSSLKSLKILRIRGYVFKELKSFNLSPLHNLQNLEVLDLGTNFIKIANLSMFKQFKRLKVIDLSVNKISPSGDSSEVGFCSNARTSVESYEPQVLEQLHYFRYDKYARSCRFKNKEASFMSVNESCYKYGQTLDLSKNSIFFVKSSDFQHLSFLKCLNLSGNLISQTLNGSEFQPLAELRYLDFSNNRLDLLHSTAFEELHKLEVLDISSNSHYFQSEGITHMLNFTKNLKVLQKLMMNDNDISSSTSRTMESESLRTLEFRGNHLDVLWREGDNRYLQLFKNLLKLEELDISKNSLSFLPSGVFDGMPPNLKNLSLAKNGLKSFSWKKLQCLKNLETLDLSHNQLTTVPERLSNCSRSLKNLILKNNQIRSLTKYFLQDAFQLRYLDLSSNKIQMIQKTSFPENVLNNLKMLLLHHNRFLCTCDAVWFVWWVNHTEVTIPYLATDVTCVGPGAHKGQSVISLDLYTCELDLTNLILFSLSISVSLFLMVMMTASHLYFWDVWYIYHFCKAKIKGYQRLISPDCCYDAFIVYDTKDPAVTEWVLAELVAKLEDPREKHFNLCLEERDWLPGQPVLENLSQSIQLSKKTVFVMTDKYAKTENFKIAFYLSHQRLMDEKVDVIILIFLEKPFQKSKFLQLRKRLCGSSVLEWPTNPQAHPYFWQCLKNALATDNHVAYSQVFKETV
Outline: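 Cells (15000/well for TLR7, 20,000 for TLR8) were treated with compounds over 0.05 nM-50 μM final. After 22 h at 37° C, 5% CO2, SEAP was measured with HEK-Blue Detection reagent; percent inhibition was taken as reduction of agonist-plus-DMSO signal relative to a known inhibitor.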

human TLR9 = molecular target: T2, human TLR9 (Homo sapiens, UniProt Q9NR96); experiment: TLR9 inhibition reporter assay (HEK-Blue SEAP); format: cell-based; conditions: HEK-Blue cells overexpressing human TLR9, ODN2006 5 nM, 22 hour incubation
T2 construct: host or cells: HEK-Blue cells
T2 sequence (Q9NR96 26-1032): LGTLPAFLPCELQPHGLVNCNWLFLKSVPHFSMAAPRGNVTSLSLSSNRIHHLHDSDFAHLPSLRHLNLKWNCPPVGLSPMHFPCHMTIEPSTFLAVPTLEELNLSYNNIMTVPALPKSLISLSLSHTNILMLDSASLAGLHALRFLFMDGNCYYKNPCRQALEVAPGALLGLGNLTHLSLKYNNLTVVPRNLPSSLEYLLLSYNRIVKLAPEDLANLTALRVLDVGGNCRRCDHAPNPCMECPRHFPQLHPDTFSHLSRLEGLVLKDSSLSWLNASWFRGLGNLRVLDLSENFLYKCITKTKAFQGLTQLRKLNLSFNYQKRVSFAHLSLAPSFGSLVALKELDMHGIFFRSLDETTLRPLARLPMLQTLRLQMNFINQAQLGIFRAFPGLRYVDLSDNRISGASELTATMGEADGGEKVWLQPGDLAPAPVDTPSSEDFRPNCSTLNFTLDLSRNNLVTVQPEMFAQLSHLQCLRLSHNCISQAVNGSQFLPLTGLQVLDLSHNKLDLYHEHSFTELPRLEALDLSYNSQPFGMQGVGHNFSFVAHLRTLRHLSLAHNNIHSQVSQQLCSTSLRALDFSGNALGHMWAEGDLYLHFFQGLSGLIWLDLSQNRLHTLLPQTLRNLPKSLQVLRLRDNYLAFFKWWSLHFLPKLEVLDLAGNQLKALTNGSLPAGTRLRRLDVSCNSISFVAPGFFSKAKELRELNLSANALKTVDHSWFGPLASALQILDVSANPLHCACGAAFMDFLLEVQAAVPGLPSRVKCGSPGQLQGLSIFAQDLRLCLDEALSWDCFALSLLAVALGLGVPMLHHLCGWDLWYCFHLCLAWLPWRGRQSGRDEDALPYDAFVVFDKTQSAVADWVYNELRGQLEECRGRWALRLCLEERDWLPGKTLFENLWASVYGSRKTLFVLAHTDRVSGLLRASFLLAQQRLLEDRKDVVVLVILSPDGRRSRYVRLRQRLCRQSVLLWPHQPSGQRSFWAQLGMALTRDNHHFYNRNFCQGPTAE
Outline: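 Human TLR7/8/9 HEK-Blue reporter lines; dose range 0.05 nM–50 μM; 30 min RT preincubation; stimulus gardiquimod 7.5 μM / R848 15.9 μM / ODN2006 5 nM respectively; 22 h, 37 °C; SEAP detected colorimetrically.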

| Structure (SMILES) | IC50 (human TLR7) [nM] | IC50 (human TLR9) [nM] |
| --- | --- | --- |
| Cc1cc2c(cc1-c1cc(C)c3ncnn3c1)[nH]c(=O)n2[C@@H]1CCCN(C2COC2)C1 [Example 18, (R)-6-methyl-5-(8-methyl-[1,2,4]triazolo[1,5-a]pyridin-6-yl)-1-(1-(oxetan-3-yl)piperidin-3-yl)-1,3-dihydro-2H-benzo[d]imidazol-2-one] | 409 | > 50000 |
| COc1c(C)c(-c2cc3[nH]c(=O)n(C4CCC(N5CC(F)C5)CC4)c3cc2C(C)C)cn2ncnc12 (single isomer, unassigned) [Example 264, 1-(4-(3-fluoroazetidin-1-yl)cyclohexyl)-6-isopropyl-5-(8-methoxy-7-methyl-[1,2,4]triazolo[1,5-a]pyridin-6-yl)-1,3-dihydro-2H-benzo[d]imidazol-2-one] | 28.4 | 17500 |
| COc1c(C)c(-c2cc3[nH]c(=O)n(C4CCC(NCC5(S(C)(=O)=O)CC5)CC4)c3cc2C(C)C)cn2ncnc12 (single isomer, unassigned) [Example 260] | 41.5 | 6360 |
| Cc1cc2c(cc1-c1cc(C)c3ncnn3c1)[nH]c(=O)n2[C@H]1CC[C@H](N(C)C)CC1 [Example 23, 1-((1r,4r)-4-(dimethylamino)cyclohexyl)-6-methyl-5-(8-methyl-[1,2,4]triazolo[1,5-a]pyridin-6-yl)-1,3-dihydro-2H-benzo[d]imidazol-2-one] | 37.7 | 5660 |
| COc1cc(-c2cc3[nH]c(=O)n(C4CCC(N5CCC(F)(F)C5)CC4)c3cc2C(C)C)cn2ncnc12 (single isomer, unassigned) [Example 295, 1-(4-(3,3-difluoropyrrolidin-1-yl)cyclohexyl)-6-isopropyl-5-(8-methoxy-[1,2,4]triazolo[1,5-a]pyridin-6-yl)-1,3-dihydro-2H-benzo[d]imidazol-2-one] | 41.8 | 22200 |

These reach a lower IC50 (human TLR7). Values come first.

| IC50 (human TLR7) [nM] | IC50 (human TLR9) [nM] | Structure (SMILES) |
| --- | --- | --- |
| 3.54 | 11900 | COc1cc(-c2cc3[nH]c(=O)n(C4CCC(N5CCSCC5)CC4)c3cc2C(C)C)cn2ncnc12 (stereo not drawn) [Example 251, 6-isopropyl-5-(8-methoxy-[1,2,4]triazolo[1,5-a]pyridin-6-yl)-1-(4-thiomorpholinocyclohexyl)-1,3-dihydro-2H-benzo[d]imidazol-2-one] |
| 7.93 | 19700 | COc1c(C)c(-c2cc3[nH]c(=O)n(C4CCC(N5CC(F)C5)CC4)c3cc2C(C)C)cn2ncnc12 (single isomer, unassigned) [Example 263, 1-(4-(3-fluoroazetidin-1-yl)cyclohexyl)-6-isopropyl-5-(8-methoxy-7-methyl-[1,2,4]triazolo[1,5-a]pyridin-6-yl)-1,3-dihydro-2H-benzo[d]imidazol-2-one] |
| 27.3 | 10800 | CCC(C)N1CCC[C@@H](n2c(=O)[nH]c3cc(-c4cc(C)c5ncnn5c4)c(C)cc32)C1 (stereo partly drawn) [Example 28, 1-((3R)-1-(sec-butyl)piperidin-3-yl)-6-methyl-5-(8-methyl-[1,2,4]triazolo[1,5-a]pyridin-6-yl)-1,3-dihydro-2H-benzo[d]imidazol-2-one] |
| 5.37 | 6750 | Cc1c(-c2cc3[nH]c(=O)n(C4CCC(N5CCCOCC5)CC4)c3cc2C(C)C)cn2ncnc2c1C (stereo not drawn) [Example 272, 1-(4-(1,4-oxazepan-4-yl)cyclohexyl)-5-(7,8-dimethyl-[1,2,4]triazolo[1,5-a]pyridin-6-yl)-6-isopropyl-1,3-dihydro-2H-benzo[d]imidazol-2-one] |
